Source: patent publication US20260042764A1, “COMPOSITIONS AND METHODS FOR INHIBITION OF KRAS” (TheRas, Inc., priority 2022, published 2026)

Columns and labels:
[1] = target: T1, Avi-KRAS WT (2-169) GTP/RAF1 RBD-3xFLAG (51-131) (Homo sapiens, UniProt P01116); assay: Raf1-KRAS WT-GTP disruption HTRF assay (Biological Example 3); type: binding; conditions: KRAS WT, GTP-loaded
T1 construct: Avi-KRAS WT (2-169)
Outline: (§1)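 An HTRF assay measured disruption of 50 nM Avi-KRAS (2-169)-GTP (WT, G12C, G12D or G12V) bound to RAF1 RBD-3xFLAG (51-131). Buffer was Tris pH 7.5 with 5 mM MgCl2 and 10% DMSO. Compounds (30–0.005 μM, 3-fold, 10 points) were incubated 1 h at room temperature, and activity is given as % of DMSO.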

[2] = target: T2, Avi-KRAS WT (1-169) GppNHp/RAF1 RBD-3xFLAG (52-151) (Homo sapiens, UniProt P01116); assay: Raf1-KRAS WT-GppNHP disruption HTRF assay (Biological Example 1); type: binding; conditions: KRAS WT, GppNHp-loaded; class symbols
T2 construct: Avi-KRAS WT (1-169)
T2 sequence (P01116 1-169 isoform P01116-2): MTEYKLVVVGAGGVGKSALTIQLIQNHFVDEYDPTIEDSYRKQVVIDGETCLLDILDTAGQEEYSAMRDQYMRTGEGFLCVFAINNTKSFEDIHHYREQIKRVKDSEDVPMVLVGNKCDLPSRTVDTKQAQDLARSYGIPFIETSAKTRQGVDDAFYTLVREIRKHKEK
Outline: (§2)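 Protein mix, 1 h RT, 700 rpm; reagent mix, 1 h RT, 700 rpm; HTRF read. Buffer Tris pH 7.5/NaCl/MgCl2/BSA/Tween, 10% DMSO. Output % activity, DMSO = 100%.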

[3] = target: T3, Avi-KRAS G12R (1-169) GppNHp/RAF1 RBD-3xFLAG (52-151) (Homo sapiens, UniProt P01116, G12R); assay: Raf1-KRAS G12R-GppNHP disruption HTRF assay (Biological Example 1); type: binding; conditions: KRAS G12R, GppNHp-loaded; class symbols
T3 construct: Avi-KRAS G12R (1-169)
T3 sequence (P01116 1-169 isoform P01116-2 G12R): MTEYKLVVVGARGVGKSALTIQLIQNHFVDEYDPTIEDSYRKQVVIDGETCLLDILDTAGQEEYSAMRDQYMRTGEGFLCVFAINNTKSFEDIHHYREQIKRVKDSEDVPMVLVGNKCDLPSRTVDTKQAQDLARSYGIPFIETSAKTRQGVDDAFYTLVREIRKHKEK
Outline: as §2

[4] = target: T4, Avi-KRAS G12D (2-169) GTP/RAF1 RBD-3xFLAG (51-131) (Homo sapiens, UniProt P01116, G12D); assay: Raf1-KRAS G12D-GTP disruption HTRF assay (Biological Example 3); type: binding; conditions: KRAS G12D, GTP-loaded
T4 construct: Avi-KRAS G12D (2-169)
T4 sequence (P01116 2-169 isoform P01116-2 G12D): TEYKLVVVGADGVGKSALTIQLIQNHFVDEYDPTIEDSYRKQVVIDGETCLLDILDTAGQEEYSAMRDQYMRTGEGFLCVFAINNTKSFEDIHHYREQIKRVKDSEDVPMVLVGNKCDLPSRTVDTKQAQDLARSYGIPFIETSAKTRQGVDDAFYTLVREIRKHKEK
Outline: as §1

SW620 cells (KRAS G12V) = assay: Cell-based pERK HTRF assay in SW620 cell (Biological Example 4); conditions: Homo sapiens, SW-620, SW620 (KRAS G12V) cells
Outline: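 SW620 seeded in RPMI/10% FBS, next day dosed 4 h (top 1 μM, half-log, 9 pts, 0.25% DMSO). Lysed, pERK by d2/Eu cryptate HTRF, 4–24 h RT, 615 nm read.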

T1 sequence (P01116 2-169 isoform P01116-2): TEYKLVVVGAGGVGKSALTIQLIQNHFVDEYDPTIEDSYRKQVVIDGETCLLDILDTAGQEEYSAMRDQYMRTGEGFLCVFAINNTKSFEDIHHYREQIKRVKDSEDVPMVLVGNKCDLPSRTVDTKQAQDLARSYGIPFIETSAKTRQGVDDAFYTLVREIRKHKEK

SMILES | IC50 [1] | IC50 [2] | IC50 [3] | IC50 [4] | IC50 (SW620 cells (KRAS G12V)) | IC50 (SW620 cells (KRAS G12V); pERK HTRF, class symbols)
CCN(c1nc(OC[C@@]23CCCN2C[C@H](F)C3)nc2c(F)c(-c3ccc(F)c4sc(N)c(C#N)c34)c(C(F)(F)F)cc12)[C@H]1C[C@@H]2CN(C)C(=O)N2C1 (atropisomer, axis not shown) [Compound 605] | 100 to 1000 nM | < 100 nM | < 100 nM | 100 to 1000 nM | < 100 nM | < 100 nM
CCN(c1nc(OC[C@@]23CCCN2C[C@H](F)C3)nc2c(F)c(-c3ccc(F)c4sc(N)c(C#N)c34)c(C(F)(F)F)cc12)[C@H]1CCN(C(=O)N2CC(F)C2)C1 (atropisomer, axis not shown) [Compound 606] | 100 to 1000 nM | < 100 nM | < 100 nM | ≤ 100 nM | < 100 nM | < 100 nM
CCN(c1nc(OC[C@@]23CCCN2C[C@H](F)C3)nc2c(F)c(-c3ccc(F)c4sc(N)c(C#N)c34)c(C(F)(F)F)cc12)[C@H]1CCN(C(=O)N2CC(OC)C2)C1 (atropisomer, axis not shown) [Compound 607] | ≤ 100 nM | < 100 nM | < 100 nM | ≤ 100 nM | < 100 nM | < 100 nM
CC(=O)N1CC[C@H](N(c2nc(OC[C@@]34CCCN3C[C@H](F)C4)nc3c(F)c(-c4ccc(F)c5sc(N)c(C#N)c45)c(C(F)(F)F)cc23)C2CC2)C1 (atropisomer, axis not shown) [Compound 608] | 1000 to 10000 nM | 100 to 1000 nM | 100 to 1000 nM | 100 to 1000 nM | < 100 nM | < 100 nM
C[C@H]1Cn2nc(C(=O)N(C)C)cc2CN1c1nc(OC[C@@]23CCCN2C[C@H](F)C3)nc2c(F)c(-c3ccc(F)c4sc(N)c(C#N)c34)c(C(F)(F)F)cc12 (atropisomer, axis not shown) [Compound 610] | 1000 to 10000 nM | 100 to 1000 nM | 100 to 1000 nM | 100 to 1000 nM | < 100 nM | < 100 nM
CCN(c1nc(OC[C@@]23CCCN2C[C@H](F)C3)nc2c(F)c(-c3ccc(F)c4sc(N)c(C#N)c34)c(C(F)(F)F)cc12)[C@H]1CCN(C(=O)CC(F)F)C1 (atropisomer, axis not shown) [Compound 611] | 100 to 1000 nM | < 100 nM | < 100 nM | ≤ 100 nM | < 100 nM | < 100 nM
CCN(c1nc(OC[C@@]23CCCN2C[C@H](F)C3)nc2c(F)c(-c3ccc(F)c4sc(N)c(C#N)c34)c(C(F)(F)F)cc12)[C@H]1CC(=O)N(CC(F)F)C1 (atropisomer, axis not shown) [Compound 613] | 100 to 1000 nM | 100 to 1000 nM | 100 to 1000 nM | ≤ 100 nM | < 100 nM | < 100 nM
CCN(c1nc(OC[C@@]23CCCN2C[C@H](F)C3)nc2c(F)c(-c3ccc(F)c4sc(N)c(C#N)c34)c(C(F)(F)F)cc12)[C@H]1CC(=O)N(C)C1 (atropisomer, axis not shown) [Compound 614] | 100 to 1000 nM | < 100 nM | < 100 nM | 100 to 1000 nM | < 100 nM | < 100 nM
CCN(c1nc(OC[C@@]23CCCN2C[C@H](F)C3)nc2c(F)c(-c3ccc(F)c4sc(N)c(C#N)c34)c(C(F)(F)F)cc12)[C@H]1CC(=O)N(C2CC2)C1 (atropisomer, axis not shown) [Compound 615] | 100 to 1000 nM | < 100 nM | < 100 nM | ≤ 100 nM | < 100 nM | < 100 nM
CCN(c1nc(OC[C@@]23CCCN2C[C@H](F)C3)nc2c(F)c(-c3ccc(F)c4sc(N)c(C#N)c34)c(C(F)(F)F)cc12)[C@H]1CCN(C(=O)N2CCN(C(C)=O)CC2)C1 (atropisomer, axis not shown) [Compound 619] | 100 to 1000 nM | < 100 nM | < 100 nM | 100 to 1000 nM | < 100 nM | < 100 nM
CC(=O)N1CC[C@H](N(CCF)c2nc(OC[C@@]34CCCN3C[C@H](F)C4)nc3c(F)c(-c4ccc(F)c5sc(N)c(C#N)c45)c(C(F)(F)F)cc23)C1 (atropisomer, axis not shown) [Compound 622] | 100 to 1000 nM | < 100 nM | < 100 nM | ≤ 100 nM | < 100 nM | < 100 nM
CCN1C[C@@H](N(C)c2nc(OC[C@@]34CCCN3C[C@H](F)C4)nc3c(F)c(-c4ccc(F)c5sc(N)c(C#N)c45)c(C(F)(F)F)cc23)CC1=O (atropisomer, axis not shown) [Compound 636] | 100 to 1000 nM | < 100 nM | < 100 nM | 100 to 1000 nM | < 100 nM | < 100 nM
CCN(c1nc(OC[C@@]23CCCN2C[C@H](F)C3)nc2c(F)c(-c3ccc(F)c4sc(N)c(C#N)c34)c(C(F)(F)F)cc12)[C@H]1CCN(C(=O)C2CN(C(C)=O)C2)C1 (atropisomer, axis not shown) [Compound 638] | 100 to 1000 nM | < 100 nM | < 100 nM | ≤ 100 nM | < 100 nM | < 100 nM
C=C(C)C(=O)N1CC[C@H](N(CC)c2nc(OC[C@@]34CCCN3C[C@H](F)C4)nc3c(F)c(-c4ccc(F)c5sc(N)c(C#N)c45)c(C(F)(F)F)cc23)C1 (atropisomer, axis not shown) [Compound 673] | 100 to 1000 nM | < 100 nM | < 100 nM | ≤ 100 nM | < 100 nM | < 100 nM
C/C=C/C(=O)N1CC[C@H](N(CC)c2nc(OC[C@@]34CCCN3C[C@H](F)C4)nc3c(F)c(-c4ccc(F)c5sc(N)c(C#N)c45)c(C(F)(F)F)cc23)C1 (atropisomer, axis not shown) [Compound 674] | ≤ 100 nM | < 100 nM | < 100 nM | ≤ 100 nM | 100 to 1000 nM | < 100 nM
CCN(c1nc(OC[C@@]23CCCN2C[C@H](F)C3)nc2c(F)c(-c3ccc(F)c4sc(N)c(C#N)c34)c(C(F)(F)F)cc12)[C@H]1CCN(C(=O)O[C@@H]2CCOC2)C1 (atropisomer, axis not shown) [Compound 683] | 100 to 1000 nM | < 100 nM | < 100 nM | ≤ 100 nM | < 100 nM | < 100 nM
CCN(c1nc(OC[C@@]23CCCN2C[C@H](F)C3)nc2c(F)c(-c3ccc(F)c4sc(N)c(C#N)c34)c(C(F)(F)F)cc12)[C@H]1CCN(C(=O)[C@@H]2C[C@@H]2C)C1 (atropisomer, axis not shown) [Compound 689] | 100 to 1000 nM | 100 to 1000 nM | < 100 nM | 100 to 1000 nM | < 100 nM | < 100 nM
CCN(c1nc(OC[C@@]23CCCN2C[C@H](F)C3)nc2c(F)c(-c3ccc(F)c4sc(N)c(C#N)c34)c(C(F)(F)F)cc12)[C@H]1C[C@H](COC)N(C(=O)C2CC2)C1 (atropisomer, axis not shown) [Compound 696] | 100 to 1000 nM | < 100 nM | < 100 nM | ≤ 100 nM | < 100 nM | < 100 nM
